From patent US20260263468A1 (Fundación Instituto de Investigación Sanitaria Fundación …, priority 2023, published 2026)

How the values were obtained:
[1] = system: C2C12 cells; test: Cell proliferation assay (AlamarBlue); assay type: cell-based; conditions: 10^−9-10^−5 M, 24 and 48 hours
Experimental: C2C12 cells (American Type Culture Collection, ATCC, Manassas, VA, USA) were cultured in DMEM supplemented with 10% FBS and 1% penicillin-streptomycin. To induce myogenic differentiation, 70% confluence C2C12 cells were culture in DMEM containing 2% HS (horse serum). Cells were maintained in a humidified chamber at 37° C., in 95% air and 5% CO2. Media was replaced with fresh every 48h.
C2C12 cells were plated in 96-well plates (Corning, Cultek, Spain) (12.500 cells/well). Cell proliferation was measured using AlamarBlue assay according to the manufacturer's instructions, at 24 and 48 h of myogenic differentiation.

[2] = system: C2C12 myobundles; test: C2C12 3D myobundle with IL-6 ± dipyridamole; assay type: cell-based; conditions: IL-6 2.5 μg/ml ± dipyridamole 1 μM, 14 days; Sham 890±39
Excerpt: C2C12 myobundles were fabricated following the protocol described by Bursac group (see references in ref. 44). Briefly, molds of polydimethylsiloxane (PDMS) designed for 12-well plates were created from Teflon masters with semicylindrical wells. These molds were sterilized, coated with 0.2% (w/v) Pluronic F-127 (Invitrogen) to prevent tissue adhesion, and paired with laser-cut Cerex frames (9×9 mm^2, 1-mm-wide rim) for myobundle attachment. The frames served as an anchor and guide during hydrogel compaction, ensuring uniaxial cell alignment. C2C12 cells were encapsulated in a hydrogel solution, including bovine fibrinogen (Sigma-Aldrich), matrigel (Corning), bovine thrombin (Sigma-Aldrich), and growth medium as concentration of bursac group indicates Referencias. The cell/hydrogel mixture was polymerized in the PDMS molds, and myobundles were cultured in a humidified chamber at 37° C., in 95% air and 5% CO2. After 4 days, the frames with myobundles were suspended in DM with treatments. DM and treatments are replaced every two days. GM and DM media contained 6-aminocaproic acid to reduce fibrinolysis. […] After the 14 days of treatment a bright-field photograph was taken to analyze the thickness of the fiber at its midpoint, and subsequently, they were embedded in OCT medium. […]

[3] = system: C2C12; conditions: dipyridamole 1 μM ± PSB-603 1 μM
Experimental: (§1) Cells were lysed with RIPA buffer and protein concentration was determined by BCA. […] Variations in intensity were expressed as % of basal (day 0) and expressed as mean±SEM. All results were calculated as a percentage of non-differentiated controls to minimize the intrinsic variation among different experiments.

[4] = mice, dipyridamole 25 mg/Kg/day with tenofovir; cited from earlier work
[5] = system: K/B×N serum transfer-induced arthritis; test: Serum CRP ELISA and serum cytokine array; assay type: in vivo, C57BL/6J mice; conditions: arthritic mice + dipyridamole
Experimental: For this purpose, they performed an array of protein expression of pro- and anti-inflammatory cytokines and chemokines in serum by using the Mouse Cytokine Array Q1 (RayBiotech, EEUU) which, simultaneously, detects 20 cytokines. The cytokines concentration was measured by fluorescence using GenePix following manufacture protocol for serum samples.
CRP concentration was measured using the colorimetric Mouse CRP ELISA kit following manufacture protocol for serum samples (Crystal Chem, USA). Absorbance was measured at 450 nm using a microplate reader Tecan Spark 20M.
Serum CRP were determined by Mouse CRP ELISA Kit (Crystal Chem, #80634), according to the instructions of the manufacturer. Absorbance was measured at 450 nm using a microplate reader Tecan Spark 20M.
The cytokines concentration was measured by fluorescence using GenePix 4000B following manufacture protocol for serum and frozen samples. Serum samples were used at 2-fold sample dilution. Frozen gastronemius were crushed using a mortar and a pestle cooled with liquid nitrogen. Next, gastronemius were homogenized in a sonicator and the protein isolated in the supernatant quantified with BCA assay. We used 100 μL (1 mg/ml) of total gastronemius protein for cytokine and chemokine array assay.

[6] = system: C2C12; test: Western blot of phosphorylated AMPK; assay type: cell-based; conditions: 1 μM each, day 4; control 1.29±0.27%
Experimental: as §1
We next studied if these changes in AMP/ATP ratio had any effect in AMPK activation.

[7] = system: C2C12; test: Nucleotide concentration by HPLC during C2C12 differentiation; assay type: cell-based
Experimental: Supernatant and cell lysate are collected every day. Cells were lysated with a homemade buffer (1 mM phenylmethylsulfonyl fluoride, 1 mM protease inhibitor cocktail, 1 mM sodium orthovanadate, 1 mM sodium fluoride and 1 mM β-glicerophospate) and supernatant was used directly. A heat shock step was done at 98° C. for 2 min, and to avoid adenosine degradation 1 μM EHNA was added at the time of heating. All samples were centrifuged at 13000 g for 10 min at 4° C. and supernatants were collected and stored at −80° C. until use. Inosine, adenosine, AMP, ADP and ATP concentrations were determined with high performance liquid chromatography (HPLC) using a liquid chromatograph with a reversed phase column (Agilent 1100 Series Liquid Chromatography) and an UV detector set at 254 nm. Buffer composed of 0.1 mol/L KH2PO4 (pH 7.5) and 18% acetonitrile was run at 1.5 ml/min for 20 min. Compounds were identified and quantified by their retention times and peak areas of known standards, calibrated by spectrophotometry. […] The results have been corrected and expressed as mean±SEM. All results were calculated as a percentage of controls without differentiation state.

[8] = system: C2C12; test: Western blot of PKA isoforms, pCREB, EPAC1/2; assay type: cell-based; conditions: 1 μM
Experimental: as §1
To study the CAMP signaling pathway, we analyzed the expression of PKA on its three catalytic isoforms PKAα, PKAβ and PKAγ as well as EPAC1/2. […] Tenofovir reduced its phosphorylation (154±9% tenofovir vs 247±30% control at day 4, p<0.05, FIG. 3B).

[9] = system: C2C12; test: cAMP concentration (ELISA); assay type: cell-based; conditions: myoblast, 1 μM, 5 minutes; control 0.58±0.13
Experimental: CAMP concentration was measured using the colorimetric cAMP ELISA kit following manufacture protocol for acetylated cell lysates (Cell Biolabs, San Diego, USA). Absorbance was measured at 450 nm using a microplate reader Tecan Spark 20M.
The CAMP signaling cascade has been linked to a delay in the onset of age-related muscle loss.

[10] = system: K/B×N serum transfer-induced arthritis; test: Atrogenes mRNA expression (RT-PCR) in gastrocnemius; assay type: in vivo, C57BL/6J mice; conditions: RA+Dipy
Experimental: Total RNA was isolated from crushed frozen gastrocnemius using TRIzol reagent (Roche Diagnostics, Barcelona, Spain) following manufacturer's instructions. A total of 1 μg RNA was reverse transcribed with a High Capacity cDNA Reverse Transcription Kit (Applied Biosystems, San Francisco, CA, USA) at […], including the following reagents, in the same reaction: RNase Inhibitor 1 U/μL, Random Hexamers […], MgCl2 5 mM, PCR buffer II 1× and dNTPs 1 mM. Relative quantification of gene expression was performed via real-time RT-PCR on a Step One Plus (Applied Biosystems) with Power UP SYBR Green MasterMix according to the manufacturer's protocol. The primers were provided from Sigma-Aldrich according to the primer bank at https://pga.mgh.harvard.edu/primerbank/. Gene expression levels were calculated with the ΔΔCt method.

Structure (SMILES): OCCN(CCO)c1nc(N2CCCCC2)c2nc(N(CCO)CCO)nc(N3CCCCC3)c2n1 [dipyridamole, 2,6-bis(Diethanolamino)-4,8-dipiperidinopyrimido[5,4-d]pyrimidine]
- Proliferation [1]: No significant changes
- Myobundle thickness [2]: did not lead to an alteration of the muscle fiber
- PAX7 protein expression ([3]; 2% HS, day 1): 198±24%
- MHC protein expression ([3]; day 1): 95±13%
- Myf5 protein expression ([3]; day 3): 79.48±31%
- PKAα protein expression ([3]; day 4): 358±156%
- pAMPK expression ([3]; day 4): 284±79.8%
- pCREB ([3]; day 4): 399.6±119.8%
- Body weight (tenofovir-induced loss) [4]: recovered
- Serum IL-9 ([5]; arthritic 4.3±1.8): 13.1 ± 2.6 pg/mL
- Serum VEGF ([5]; arthritic 90±13.1): 221 ± 40.3 pg/mL
- Serum IL-10 ([5]; arthritic 117.6±5.2): 166 ± 10 pg/mL
- Serum CRP ([5]; arthritic 4098±560, sham 2861±893): 3543 ± 586 ng/mL
- pAMPK (Western blot) [6]: 2.66±0.7%
- Extracellular ATP ([7]; 1 μM each, day 4, control 14.7±0.5): did not modify
- Intracellular adenosine ([7]; 1 μM, day 4, control 10.87±0.73): 13.76 ± 1.13 nM
- Intracellular inosine ([7]; 1 μM, day 4, control 11.07±0.54): 14.17 ± 1.75 nM
- Intracellular AMP ([7]; 1 μM, day 4, control 12.10±0.73): 18.53 ± 1.13 nM
- Extracellular adenosine ([7]; 1 μM, day 4 of differentiation, control 11.6±0.81): 17.33 ± 0.47 nM
- pCREB (% of basal) ([8]; day 4, control 247±30%): 275±73%
- EPAC2 protein expression ([8]; within differentiation): decreased
- cAMP levels [9]: 0.85±0.17
- Atrogin-1 mRNA expression ([10]; RA 5.40±1.37, Sham 1.94±0.33): 0.29±0.09
- Murf1 mRNA expression ([10]; RA 8.71±2.75, Sham 1.60±0.35): 1.60±0.22
